Key:
[1] = system: PI3KC2α, PI3KC2γ, PIP4K2α, PIP5K1α and PIP5K1γ; test: Selectivity against other lipid kinases; format: biochemical
From the text: (§1) Utilizing the crystal structure of PI3Kδ, we designed and synthesized a series of compounds in an effort to discover new potent and selective PI3Kδ inhibitors, which bind to PI3Kδ differently from CAL-101. […] The benzimidazole group of X-370 extends into the affinity pocket, where its nitrogen acts as a hydrogen bond acceptor for the primary amine of Lys779. The difluoromethyl group of X-370 points toward Pro758 in the hydrophobic affinity pocket. Instead of wedging between Met752 and Trp760, a binding mode utilized by CAL-101 to generate specificity against PI3Kδ (Figure S1), the pyrrole group of X-370 presses tightly against Trp760. These specific interactions of X-370 with p110δ confer a selective and potent inhibition of PI3Kδ. As expected, X-370 inhibited the kinase activity of PI3Kδ in an ATP-competitive manner, with IC50 increasing in concert with ATP levels (Figure 1C), confirming the binding of X-370 in the ATP pocket. […] More than 1000-fold selectivity was seen against other lipid kinases tested including PI3KC2α, PI3KC2γ, PIP4K2α, PIP5K1α and PIP5K1γ. […]
Figure 1 Structure of X-370 and its inhibitory activity against lipid kinases (A) Chemical structure of X-370. […] Relative kinase activity in the presence of 10 μM X-370 compared to DMSO control was measured for the rest of lipid kinases. […]

[2] = system: human B cell leukemia cells; test: Proliferation of a panel of human B cell leukemia cells (CCK-8); format: cell-based; conditions: 72 h, range over the cell panel, read-out: IC50s, proliferation
Procedure: Cell viability was assessed using Cell Counting Kit (CCK-8, Dojindo, Japan) following the manufacturer's protocol and OD values were measured with a Spectramax M5 plate reader (Molecular Devices, Sunnyvale, CA)[45].
Figure S3: X-370 inhibited proliferation of human B cell leukemia cells. Cells were seeded in 96 -well plate and treated with serial diluted X-370 for 72 h. cell viability was then assessed by CCK-8 reagent and inhibitory rate was calculated. […]
antiproliferative activity of X-370 against these cells. […]

Raji MEK DD cells = test: Proliferation of Raji MEK DD cells (CCK-8); format: cell-based, human; conditions: 72 h, CCK-8, compared with Raji
Procedure: Figure 5 Inhibition of Erk1/2 phosphorylation by X-370 contributed to its antiproliferative activity (A-C) X-370 inhibited Erk1/2 phosphorylation via PI3K-PDK1-MEK1/2 cascade but not the PI3K-Gab1 positive feedback loop. (A) Raji and SU-DHL-6 cells were exposed to 1 μM X370 for 3 h and protein fraction from cellular membrane was separated using Native Membrane Protein Extraction Kit and probed. WCL: whole cell lysate. (B) Inhibition of PDK1 or MEK1/2 abrogated Erk1/2 phosphorylation. Cells were treated with pharmacological inhibitors of Raf (AZ 628, PLX4032), MEK1/2 (AZD6244), p90RSK (BI-D1870), PI3Kδ (X-370), PDK1 (BX-912), Akt (MK-2206), mTOR (AZD8055) or mTORC1 (Rapamycin) respectively and indicated proteins were detected. […] Raji cells were treated with 1 μM X370 for 1 h and cell lysates were immunoprecipitated with anti-PDK1 antibody and indicated proteins were detected. […] (E) Raji and Raji MEK DD cells were treated with X-370 for 72 h and cell proliferation was detected by CCK-8 assay. (F) Raji MEK DD cells were treated with X-370 and AZD6244 and cell proliferation was detected by CCK-8 assay. Data were show as mean ± SD of three independent experiments. *: p < 0.05 determined by t-tests at each data point. […]
luciferase. Raji cells expressing MEK DD or luciferase were incubated with 1 μM AZD6244 or DMSO control respectively for 72 h, and then cell viability were assessed by CCK-8 reagent. […]

PI3Kδ = PI3Kδ (Homo sapiens, UniProt O00329); test: PI3-Kinase HTRF assay with increasing ATP; format: biochemical; set-up: GST; made in house; host or cells: Sf9 insect cells; conditions: IC50 increasing in concert with ATP levels
Chain of PI3Kδ (O00329 whole entry): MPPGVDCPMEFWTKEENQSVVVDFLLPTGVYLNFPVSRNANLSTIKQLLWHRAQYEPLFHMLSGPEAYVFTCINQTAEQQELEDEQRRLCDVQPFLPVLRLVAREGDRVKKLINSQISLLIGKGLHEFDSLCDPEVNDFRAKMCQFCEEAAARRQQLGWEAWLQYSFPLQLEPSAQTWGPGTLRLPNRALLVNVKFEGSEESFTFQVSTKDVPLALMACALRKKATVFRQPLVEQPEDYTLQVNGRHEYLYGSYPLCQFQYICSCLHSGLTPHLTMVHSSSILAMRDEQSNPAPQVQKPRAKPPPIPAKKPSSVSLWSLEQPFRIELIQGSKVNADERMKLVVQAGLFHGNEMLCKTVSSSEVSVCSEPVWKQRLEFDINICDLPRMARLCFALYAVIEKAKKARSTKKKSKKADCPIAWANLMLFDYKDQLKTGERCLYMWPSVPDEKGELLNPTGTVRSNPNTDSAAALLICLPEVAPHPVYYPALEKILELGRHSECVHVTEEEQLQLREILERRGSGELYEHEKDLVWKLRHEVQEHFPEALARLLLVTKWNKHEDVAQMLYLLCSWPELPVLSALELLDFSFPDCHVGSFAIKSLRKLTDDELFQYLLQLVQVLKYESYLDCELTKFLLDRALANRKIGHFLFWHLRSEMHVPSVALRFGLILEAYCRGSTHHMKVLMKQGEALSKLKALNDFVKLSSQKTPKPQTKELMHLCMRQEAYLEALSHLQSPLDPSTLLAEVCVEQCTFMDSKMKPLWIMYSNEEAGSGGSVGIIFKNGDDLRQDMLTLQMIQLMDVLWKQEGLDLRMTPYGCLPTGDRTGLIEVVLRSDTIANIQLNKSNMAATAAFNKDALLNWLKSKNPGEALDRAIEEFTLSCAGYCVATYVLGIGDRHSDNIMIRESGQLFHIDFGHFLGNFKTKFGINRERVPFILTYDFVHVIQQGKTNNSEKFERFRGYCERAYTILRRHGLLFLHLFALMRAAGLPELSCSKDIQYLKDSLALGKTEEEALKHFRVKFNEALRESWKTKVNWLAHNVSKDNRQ
Chain of PI3Kδ (P27986 whole entry partner): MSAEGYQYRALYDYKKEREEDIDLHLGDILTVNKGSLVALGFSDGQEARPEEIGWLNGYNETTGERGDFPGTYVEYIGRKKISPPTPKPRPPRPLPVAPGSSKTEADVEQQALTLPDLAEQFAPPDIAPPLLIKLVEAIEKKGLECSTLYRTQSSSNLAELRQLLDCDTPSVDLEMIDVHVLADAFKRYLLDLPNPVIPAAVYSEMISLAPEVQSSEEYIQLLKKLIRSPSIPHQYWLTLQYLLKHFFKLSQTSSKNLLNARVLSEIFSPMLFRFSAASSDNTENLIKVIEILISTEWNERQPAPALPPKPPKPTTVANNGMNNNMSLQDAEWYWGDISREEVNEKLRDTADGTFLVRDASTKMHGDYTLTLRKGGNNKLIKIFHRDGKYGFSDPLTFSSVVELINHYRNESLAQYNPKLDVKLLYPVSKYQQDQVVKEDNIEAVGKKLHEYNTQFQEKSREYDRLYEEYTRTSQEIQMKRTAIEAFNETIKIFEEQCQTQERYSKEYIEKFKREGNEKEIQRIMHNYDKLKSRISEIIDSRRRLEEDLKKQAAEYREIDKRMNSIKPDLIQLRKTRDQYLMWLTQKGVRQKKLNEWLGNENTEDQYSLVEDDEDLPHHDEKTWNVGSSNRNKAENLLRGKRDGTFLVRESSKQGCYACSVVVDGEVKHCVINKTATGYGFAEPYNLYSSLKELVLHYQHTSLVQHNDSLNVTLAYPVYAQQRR
From the text: as §1
In vitro kinase profile assays were analyzed by the Kinase Profiler Service (Millipore, United Kingdom) following its guidelines. […] The PI3K kinase activity was determined in the increasing concentration of ATP and X-370 with PI3-Kinase HTRF™ Assay kit (Millipore) as described previously.

- IC50 [2]: 0.04 to 6.3 µM
- manner of inhibition of PI3Kδ kinase activity (PI3Kδ): ATP-competitive
Compound: O=C(N1CCCC1)N1CCC(n2cnc3c(-n4c(C(F)F)nc5ccccc54)nc(N4CCOCC4)nc32)CC1 [X-370]
- selectivity for PI3Kδ against other lipid kinases [1]: More than 1000 fold
- effect of MEK DD expression on inhibition of viability (Raji MEK DD cells): attenuated inhibition of viability
